Data published in patent US8202910B2 (Sequella, Inc., priority 2006, dated 2012).
Converted amounts (≈) assume the structure as drawn. “Also recorded” adds a separate entry of the source. Like-named read-outs stand apart in the source and are kept apart here.

Tests used:
[1] = tested on: M. tuberculosis H37Rv; experiment: MIC by BACTEC 460; format: cell-based, Mycobacterium tuberculosis; conditions: Mycobacterium tuberculosis, H37RV; read-out: MIC (BACTEC)
[2] = tested on: monkey kidney cells (Vero); experiment: In vitro toxicity, Vero cells; format: cell-based; conditions: Primates
Protocol: Twenty six compounds (including 37, 59 and 109) were tested in an in vitro model of toxicity using monkey kidney cells (Vero) and human cervical cancer cells (HeLa) using methods well known to those skilled in the art. The data from this toxicity testing and the MIC data were used to calculate a selectivity index (SI), the ratio of IC50:MIC (Table 15). Selectivity Indexes were ranging from 1.76 to 16.67.

[3] = PK, tissue distribution, excretion and metabolism of compound 109 in mice; format: in vivo; set-up: Amount cumulatively excreted, Feces / Amount cumulatively excreted, Urine: unit not given here; conditions: for half-life: read-out: T1/2 el (converted)
Protocol: Initially, analytical methods for determination of the compounds had been developed that allowed to carry out all the PK experiments, sec FIG. 29. Here is a brief description of the experiment: (1) plasma spiked with tested compounds and 10 uL of Terfenadine or plasma samples (200 uL) added; (2) ACN (2 mL) added to precipitate protein and spin at 2,500 rpm; (3) evaporate supernatant to dryness; (4) add 200 uL of the diluting solvent: methanol (with 0.1% of trifluoroacetic acid): ammonium acetate (80/20); (5) vortex, spin, and use supernatant; (6) run LC/MS/MS on Sciex API 3000.
Conjugated metabolites are products of the typical metabolic pathway N-glucoronidation formed by reaction with glucuronic acid (D. A. Williams and T. L. Lemke in Foye's Principals of Medicinal Chemistry, 5th Ed., p.202).

[4] = in vitro; format: in vitro ADME; conditions: plasma
[5] = tested on: M. tuberculosis; experiment: Minimum Bactericidal Concentration (MBC); format: cell-based; conditions: Mycobacterium tuberculosis
[6] = target: T1, dopamine receptor D1 (Homo sapiens, UniProt P21728); experiment: CEREP receptor binding, D1; conditions: tested at 10 μM; read-out: inhibition of control specific binding
T1 construct: CEREP (contract testing)
T1 sequence (P21728 whole entry): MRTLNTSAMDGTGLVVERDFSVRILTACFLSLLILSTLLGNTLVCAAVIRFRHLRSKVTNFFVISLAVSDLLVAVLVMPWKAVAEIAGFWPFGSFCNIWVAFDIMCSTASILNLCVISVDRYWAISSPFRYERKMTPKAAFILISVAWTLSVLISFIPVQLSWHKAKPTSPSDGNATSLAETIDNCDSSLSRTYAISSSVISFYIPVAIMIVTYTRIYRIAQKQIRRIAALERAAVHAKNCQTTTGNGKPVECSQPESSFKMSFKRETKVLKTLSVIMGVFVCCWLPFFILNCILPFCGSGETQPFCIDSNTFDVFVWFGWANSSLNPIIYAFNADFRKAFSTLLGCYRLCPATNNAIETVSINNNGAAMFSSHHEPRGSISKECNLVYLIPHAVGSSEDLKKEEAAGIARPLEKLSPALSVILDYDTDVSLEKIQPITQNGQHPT
Text: (§1) In vitro testing for safety pharmacology and early ADMET (Absorption, Distribution, Metabolism, Excretion, Toxicity) studies of compound 109 were contracted out to CEREP (15318 NE 95th Street, Redmond, Wash., 98052, USA www.cerep.com) under a service agreement and included evaluation of inhibitory binding to a panel of 27 standard receptors and three transporters (See FIG. 60 (Table 31) and FIG. 61 (Table 32)) which included: adenosine receptors (A1 and A2A), adrenergic receptors (alpha 1, alpha 2, beta 1), angiotensin II receptor (AT1), benzodiazapene receptor (BZD), bradykinin receptor (B2), cholecystokinin receptor (CCK1), dopamine receptors (D1, D2S), endothelin receptor (ETA), GABA receptor (GABA), glutamate receptor (NMDA), histamine receptor (H1 central), melanocortin receptor (MC4), muscarinic receptor (M, non-selective), neurokinin receptor (NK1), neuropeptide Y receptor (Y), nicotinic receptor (neuronal, alpha-BGTX-insensitive), opiate receptor (non-selective opiate), orphanin receptor (ORL1), phencyclidine receptor (PCP), serotonin receptor (5-HT), sigma receptor (sigma non-selective), steroid receptor (glucocorticoid receptor, GR), and NE, DA, and 5-HT transporters.
(§2) The specific ligand binding to the receptors is defined as the difference between the total binding and the nonspecific binding determined in the presence of an excess of unlabelled ligand.

[7] = tested on: muscarinic receptor (M, non-selective); experiment: CEREP receptor binding, muscarinic M; conditions: tested at 10 μM
Text: as §1, §2

[8] = target: T2, Dopamine DA transporter (Homo sapiens, UniProt Q01959); experiment: CEREP transporter binding, DA; conditions: tested at 10 μM; read-out: inhibition of control specific binding
T2 construct: CEREP (contract testing)
T2 sequence (Q01959 whole entry): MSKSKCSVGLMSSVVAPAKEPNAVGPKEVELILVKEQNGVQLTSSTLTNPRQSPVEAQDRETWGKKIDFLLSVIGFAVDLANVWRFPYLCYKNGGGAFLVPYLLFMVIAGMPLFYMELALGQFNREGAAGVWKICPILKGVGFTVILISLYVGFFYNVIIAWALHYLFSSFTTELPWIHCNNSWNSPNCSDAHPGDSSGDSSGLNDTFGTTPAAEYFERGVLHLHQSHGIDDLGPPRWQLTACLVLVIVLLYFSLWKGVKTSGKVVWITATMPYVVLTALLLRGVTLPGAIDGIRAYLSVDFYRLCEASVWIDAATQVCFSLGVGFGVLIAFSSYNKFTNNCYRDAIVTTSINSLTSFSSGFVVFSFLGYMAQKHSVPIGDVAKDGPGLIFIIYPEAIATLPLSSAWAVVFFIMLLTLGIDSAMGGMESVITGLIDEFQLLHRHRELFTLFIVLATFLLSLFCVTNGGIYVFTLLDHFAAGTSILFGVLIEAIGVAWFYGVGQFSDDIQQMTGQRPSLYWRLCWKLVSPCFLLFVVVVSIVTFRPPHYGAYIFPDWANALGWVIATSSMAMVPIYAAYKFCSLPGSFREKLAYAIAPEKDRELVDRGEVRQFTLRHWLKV
Text: as §1, §2

[9] = tested on: Haemophilus influenzae; experiment: Spectrum of activity MIC (NCCLS); format: cell-based; conditions: three isolates
Protocol: (§3) Compound 109 was tested against a representative panel of commonly encountered clinical microorganisms comprising opportunistic pathogens, target pathogens and normal human flora. The spectrum of activity of compound 109 was evaluated by performing antimicrobial susceptibility testing against a collection of aerobic and anaerobic bacteria, fungi, and mycobacteria. MICs for all organisms were established using the appropriate NCCLS (National Committee for Clinical Laboratory Standards) recommended standard methods and quality control strains.

[10] = tested on: Helicobacter pylori; experiment: Spectrum of activity MIC (NCCLS); format: cell-based; conditions: all three strains tested
Protocol: as §3

[11] = tested on: Staphylococci; experiment: Spectrum of activity MIC (NCCLS); format: cell-based; conditions: all Staphylococci tested
Protocol: as §3

[12] = tested on: Streptococcus pneumoniae; experiment: Spectrum of activity MIC (NCCLS); format: cell-based
Protocol: as §3

[13] = tested on: enterococci; experiment: Spectrum of activity MIC (NCCLS); format: cell-based; conditions: all species of enterococci tested
Protocol: as §3

[14] = tested on: Propionibacterium acnes, Bacteroides fragilis, and Clostridium difficile; experiment: Spectrum of activity MIC (NCCLS), anaerobes; format: cell-based
Protocol: as §3

[15] = tested on: Candida albicans; experiment: Spectrum of activity MIC, broth microdilution NCCLS M27-A2 (yeast); format: cell-based
Protocol: Compound 109 was tested against a representative panel of commonly encountered clinical microorganisms comprising opportunistic pathogens, target pathogens and normal human flora. The spectrum of activity of compound 109 was evaluated by performing recommended broth microdilution methods. NCCLS M27-A2, 2003 for yeast and NCCLS M38-A, 2003 for mold.

[16] = tested on: M. fortuitum; experiment: Spectrum of activity MIC, rapid-grower, broth microdilution (NCCLS M24-A); format: cell-based; conditions: Mycolicibacterium fortuitum; all strains tested
[17] = tested on: M. tuberculosis H37Rv; experiment: Standard chronic mouse model of tuberculosis, CFU in lung; format: in vivo, C57BL/6 female mice

CC(C)=CCC/C(C)=C/CNCCNC1C2CC3CC(C2)CC1C3 (stereo not shown) [Compound 109, N-Geranyl-N′-(2-adamanthyl)ethane-1,2-diamine]
MIC [1]: 0.32 µg/mL (≈ 0.968 µM) | IC50 [2]: 26 µM | Amount cumulatively excreted, Feces ([3]; 3 mg/kg i.v., 0-4 h): <0.01 | Amount cumulatively excreted, Urine ([3]; 3 mg/kg i.v., 0-4 h, unit not given): <0.01 | Amount cumulatively excreted, Feces ([3]; 3 mg/kg i.v., 4-8 h): 0.01 | Amount cumulatively excreted, Urine ([3]; 3 mg/kg i.v., 4-8 h): <0.01 | Amount cumulatively excreted, Feces ([3]; 3 mg/kg i.v., 8-24 h): 0.04 | Amount cumulatively excreted, Urine ([3]; 3 mg/kg i.v., 8-24 h): 0.03 | Amount cumulatively excreted, Feces ([3]; 3 mg/kg i.v., 24-32 h): <0.01 | Amount cumulatively excreted, Urine ([3]; 3 mg/kg i.v., 24-32 h): 0.01 | Amount cumulatively excreted, Feces ([3]; 3 mg/kg i.v., Total 0-32 h): 0.06 | Amount cumulatively excreted, Urine ([3]; 3 mg/kg i.v., Total 0-32 h): 0.04 | Amount cumulatively excreted, Feces ([3]; 25 mg/kg p.o., 0-4 h): 0.48 | Amount cumulatively excreted, Feces ([3]; 25 mg/kg p.o., 4-8 h): 0.31 | Amount cumulatively excreted, Feces ([3]; 25 mg/kg p.o., 8-24 h): 1.12 | Amount cumulatively excreted, Feces ([3]; 25 mg/kg p.o., 24-32 h): 0.08 | Amount cumulatively excreted, Feces ([3]; 25 mg/kg p.o., Total 0-32 h): 2.0 | tissue distribution ([3]; i.v. 3 mg/kg, p.o. 25 mg/kg): primarily distributes into the lungs and spleen | plasma level relative to MBC ([3]; iv or p.o.): reaches and exceeds its Minimum Bactericidal Concentration | metabolites (breakdown products) in urine ([3]; mouse urine): did not provide evidence of breakdown products | conjugated (N-glucoronidation) metabolites in urine ([3]; mouse urine, first 24 hr): No glucoronidation metabolites; also recorded: no evidence for the formation of conjugated metabolites | total amount after excretion (urine and feces) ([3]; mouse, in vivo): ≤ 3 % of the delivered dose | total clearance ([3]; mouse, in vivo): less than hepatic blood flow | AUC ([3]; mouse, in vivo, iv, 3 mg/kg): 792 ng·h/mL | Cmax ([3]; mouse, in vivo, iv, 3 mg/kg): 1040 ng/mL | Tmax ([3]; mouse, in vivo, iv, 3 mg/kg): 0 min | clearance ([3]; mouse, in vivo, iv, 3 mg/kg): 63.1 mL/min/kg | half-life ([3]; mouse, in vivo, iv, 3 mg/kg): 210 min | Vd ([3]; mouse, in vivo, iv, 3 mg/kg, read-out: Vdss): 11.8 L/kg | AUC ([3]; mouse, in vivo, po, 25 mg/kg): 254 ng·h/mL | Cmax ([3]; mouse, in vivo, po, 25 mg/kg): 135 ng/mL | Tmax ([3]; mouse, in vivo, po, 25 mg/kg): 18.6 min | bioavailability ([3]; mouse, in vivo, po, 25 mg/kg): 3.8% | half-life ([3]; mouse, in vivo, po, 25 mg/kg): 312 min | fraction unbound at 20 ng/ml [4]: 0.85 | fraction unbound at 200 ng/ml [4]: 0.26 | fraction unbound at 2000 ng/ml [4]: 0.52 | MBC [5]: 0.313 µg/mL (≈ 0.947 µM) | inhibition at 10 µM [6]: 51% | inhibition of control specific binding [7]: 96% | inhibition at 10 µM [8]: 63% | MIC [9]: 1 to 32 µg/mL (≈ 3.03 to 96.8 µM) | MIC [10]: 4 µg/mL (≈ 12.1 µM) | MIC [11]: 16 to 32 µg/mL (≈ 48.4 to 96.8 µM) | MIC [12]: 4 to 8 µg/mL (≈ 12.1 to 24.2 µM) | MIC [13]: 16 to 64 µg/mL (≈ 48.4 to 194 µM) | MIC [14]: 16 to 64 µg/mL (≈ 48.4 to 194 µM) | MIC [15]: 4 to 8 µg/mL (≈ 12.1 to 24.2 µM) | MIC [16]: 1 µg/mL (≈ 3.03 µM) | CFU in lung ([17]; INH+RIF+SQ109 at 25, 20 and 10 mg/kg, wk 4): 3.2 log10CFU | CFU in lung ([17]; SQ109 by itself, 4 week therapy, control untreated 8.1): 6.6 log10CFU | CFU in lung ([17]; combination SQ109+RIF at 10 and 20 mg/kg, 4 week therapy): 4.8 log10
